Measurements reported in article PMC10407194 (Current Research in Insect Science, 2023).
pEC50: −log10 of the molar value.

Target: T1, TcTRPA1 (Tribolium castaneum, UniProt A0A139WJZ5)
T1 sequence (A0A139WJZ5 1-1242): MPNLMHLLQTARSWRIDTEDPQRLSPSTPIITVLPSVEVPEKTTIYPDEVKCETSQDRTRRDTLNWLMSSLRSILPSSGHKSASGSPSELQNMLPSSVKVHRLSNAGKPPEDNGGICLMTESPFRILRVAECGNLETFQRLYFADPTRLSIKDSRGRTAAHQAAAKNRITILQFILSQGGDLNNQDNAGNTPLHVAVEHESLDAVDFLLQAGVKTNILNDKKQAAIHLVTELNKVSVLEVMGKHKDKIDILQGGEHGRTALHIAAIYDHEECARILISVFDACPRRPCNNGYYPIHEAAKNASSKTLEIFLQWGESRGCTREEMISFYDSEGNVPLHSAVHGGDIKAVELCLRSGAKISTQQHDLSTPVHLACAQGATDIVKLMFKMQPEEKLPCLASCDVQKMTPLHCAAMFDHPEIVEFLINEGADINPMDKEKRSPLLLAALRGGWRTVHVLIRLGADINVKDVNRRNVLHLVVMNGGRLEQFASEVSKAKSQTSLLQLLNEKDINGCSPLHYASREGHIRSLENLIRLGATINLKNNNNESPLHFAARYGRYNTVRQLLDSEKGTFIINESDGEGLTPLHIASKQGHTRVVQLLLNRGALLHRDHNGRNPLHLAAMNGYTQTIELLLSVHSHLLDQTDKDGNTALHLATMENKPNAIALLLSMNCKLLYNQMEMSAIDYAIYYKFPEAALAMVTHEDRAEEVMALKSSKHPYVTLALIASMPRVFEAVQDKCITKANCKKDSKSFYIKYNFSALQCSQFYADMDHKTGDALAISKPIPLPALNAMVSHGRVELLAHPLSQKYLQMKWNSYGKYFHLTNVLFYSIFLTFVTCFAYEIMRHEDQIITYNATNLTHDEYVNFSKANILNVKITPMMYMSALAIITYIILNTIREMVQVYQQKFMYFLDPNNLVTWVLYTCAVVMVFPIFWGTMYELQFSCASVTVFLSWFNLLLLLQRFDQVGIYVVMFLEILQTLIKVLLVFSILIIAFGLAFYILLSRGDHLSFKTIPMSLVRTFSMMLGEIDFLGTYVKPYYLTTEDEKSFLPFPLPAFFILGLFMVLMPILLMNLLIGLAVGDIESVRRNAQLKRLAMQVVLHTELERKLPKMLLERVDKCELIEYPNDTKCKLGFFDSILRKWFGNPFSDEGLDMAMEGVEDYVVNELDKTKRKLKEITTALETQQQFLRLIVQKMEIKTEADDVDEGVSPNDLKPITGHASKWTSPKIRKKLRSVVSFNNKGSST
Assay: Ca2+ influx fluorescence assay
Assay type: cell-based

- pEC50: 4.16
SMILES: CC(C)=CCCC(C)CC=O (stereo not shown) [citronellal]
